As a reminder, the IC50 is the concentration that inhibits the measured activity by half.

From patent US20120258993A1, “NON-NATURAL MACROCYCLIC AMIDE HDAC6 INHIBITOR COMPOUNDS AND THEIR USES AS THERAPEUTIC AGENTS” (SIGMA-TAU INDUSTRIE FARMACEUTICHE RIUNITE S.P.A., priority 2009, published 2012) come the findings set out here.

What all share (assay): HDAC enzyme inhibition, fluorogenic peptide substrate
Format in all cases: biochemical
Holding throughout (settings): purified human enzyme, fluorogenic peptide substrate 10 μM

The target of one test is T1, HDAC6 (Homo sapiens, UniProt Q9UBN7).
T1 sequence (Q9UBN7 1-1215): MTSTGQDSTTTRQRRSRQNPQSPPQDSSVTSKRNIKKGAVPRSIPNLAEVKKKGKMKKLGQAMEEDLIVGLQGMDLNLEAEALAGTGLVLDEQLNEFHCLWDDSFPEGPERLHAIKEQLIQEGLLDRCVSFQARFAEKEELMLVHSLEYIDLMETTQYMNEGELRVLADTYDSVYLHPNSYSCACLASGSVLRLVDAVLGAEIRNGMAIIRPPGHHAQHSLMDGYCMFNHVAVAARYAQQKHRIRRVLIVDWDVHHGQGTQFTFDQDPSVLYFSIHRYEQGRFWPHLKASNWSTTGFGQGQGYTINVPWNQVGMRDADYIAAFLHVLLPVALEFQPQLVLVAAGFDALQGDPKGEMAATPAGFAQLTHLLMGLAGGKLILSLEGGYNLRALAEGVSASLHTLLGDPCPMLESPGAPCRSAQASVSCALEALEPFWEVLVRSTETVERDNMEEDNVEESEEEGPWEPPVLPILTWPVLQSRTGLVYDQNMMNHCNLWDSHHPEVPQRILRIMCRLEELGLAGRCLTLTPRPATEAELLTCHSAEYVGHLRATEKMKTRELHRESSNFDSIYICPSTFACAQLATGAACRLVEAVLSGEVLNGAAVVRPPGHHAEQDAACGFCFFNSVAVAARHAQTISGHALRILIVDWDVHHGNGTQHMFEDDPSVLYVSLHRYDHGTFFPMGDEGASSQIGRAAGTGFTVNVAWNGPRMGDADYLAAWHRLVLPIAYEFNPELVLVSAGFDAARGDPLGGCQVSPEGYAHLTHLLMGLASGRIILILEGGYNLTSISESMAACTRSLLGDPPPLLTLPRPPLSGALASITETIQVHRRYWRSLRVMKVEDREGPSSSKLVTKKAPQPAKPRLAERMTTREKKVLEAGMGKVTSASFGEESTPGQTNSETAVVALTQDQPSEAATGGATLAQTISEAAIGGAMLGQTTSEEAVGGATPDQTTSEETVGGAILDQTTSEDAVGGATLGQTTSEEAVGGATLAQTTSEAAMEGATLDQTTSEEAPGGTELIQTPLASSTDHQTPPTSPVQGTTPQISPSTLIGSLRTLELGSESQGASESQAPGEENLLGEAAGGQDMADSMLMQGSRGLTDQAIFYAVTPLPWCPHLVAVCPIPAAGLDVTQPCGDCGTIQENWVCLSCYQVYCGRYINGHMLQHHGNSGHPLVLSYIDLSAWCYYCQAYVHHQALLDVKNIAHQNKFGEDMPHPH
Here is the method:
(§1) The substrate was incubated with the eleven single HDAC purified enzymes. Upon its deacetylation, the fluorophore was released given rise to fluorescence emission. The latter was detected by a fluorimeter, and the IC50 values of the compounds were determined by analyzing dose-response inhibition curves. TSA and SAHA were used as reference compounds.

For the next test, the target named is HDAC5 (Homo sapiens, UniProt Q9UQL6). The protocol: as §1
HDAC5, sequence (Q9UQL6 whole entry): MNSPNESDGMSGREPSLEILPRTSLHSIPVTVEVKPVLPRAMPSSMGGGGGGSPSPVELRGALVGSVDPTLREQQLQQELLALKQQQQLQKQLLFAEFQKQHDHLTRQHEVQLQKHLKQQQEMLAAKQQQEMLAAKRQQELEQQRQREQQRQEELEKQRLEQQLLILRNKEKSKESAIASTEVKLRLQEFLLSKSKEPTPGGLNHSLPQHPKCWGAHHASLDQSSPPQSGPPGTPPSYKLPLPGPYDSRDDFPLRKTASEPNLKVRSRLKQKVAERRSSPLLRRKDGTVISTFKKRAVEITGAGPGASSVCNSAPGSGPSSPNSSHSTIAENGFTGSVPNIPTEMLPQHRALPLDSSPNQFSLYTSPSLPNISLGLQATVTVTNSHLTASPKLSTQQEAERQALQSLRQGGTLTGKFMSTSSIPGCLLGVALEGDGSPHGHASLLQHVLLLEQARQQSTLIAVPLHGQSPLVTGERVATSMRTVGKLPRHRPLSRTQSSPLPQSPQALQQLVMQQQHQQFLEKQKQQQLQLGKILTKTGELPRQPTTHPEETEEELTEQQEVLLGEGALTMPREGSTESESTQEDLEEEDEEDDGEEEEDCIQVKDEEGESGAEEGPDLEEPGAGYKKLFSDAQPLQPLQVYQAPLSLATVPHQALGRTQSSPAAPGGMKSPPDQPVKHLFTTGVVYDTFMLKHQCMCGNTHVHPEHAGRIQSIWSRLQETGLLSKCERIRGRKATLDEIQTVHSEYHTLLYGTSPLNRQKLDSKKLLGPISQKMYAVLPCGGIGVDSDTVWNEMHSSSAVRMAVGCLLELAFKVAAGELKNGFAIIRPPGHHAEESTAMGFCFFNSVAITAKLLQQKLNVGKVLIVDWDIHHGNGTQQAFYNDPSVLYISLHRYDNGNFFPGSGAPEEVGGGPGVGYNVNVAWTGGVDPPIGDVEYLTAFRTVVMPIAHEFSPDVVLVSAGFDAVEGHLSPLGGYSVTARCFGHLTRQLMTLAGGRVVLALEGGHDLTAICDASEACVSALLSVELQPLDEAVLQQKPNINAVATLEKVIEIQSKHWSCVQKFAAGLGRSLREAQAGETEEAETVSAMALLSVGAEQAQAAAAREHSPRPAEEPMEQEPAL
A further test addresses T2, HDAC11 (Homo sapiens, UniProt Q96DB2).
T2 sequence (Q96DB2 1-347): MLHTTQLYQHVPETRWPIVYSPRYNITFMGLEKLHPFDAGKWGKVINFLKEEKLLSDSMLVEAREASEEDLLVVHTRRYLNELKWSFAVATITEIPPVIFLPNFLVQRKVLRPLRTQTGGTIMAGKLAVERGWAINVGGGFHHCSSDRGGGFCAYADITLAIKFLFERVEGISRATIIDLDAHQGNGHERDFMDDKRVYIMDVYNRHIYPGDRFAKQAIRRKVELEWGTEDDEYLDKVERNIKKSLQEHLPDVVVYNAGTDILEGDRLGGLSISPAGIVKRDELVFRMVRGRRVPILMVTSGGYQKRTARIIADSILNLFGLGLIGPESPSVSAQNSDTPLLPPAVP
The protocol:
as §1

Another test has as its target T3, HDAC8 (Homo sapiens, UniProt Q9BY41).
T3 sequence (Q9BY41 1-377): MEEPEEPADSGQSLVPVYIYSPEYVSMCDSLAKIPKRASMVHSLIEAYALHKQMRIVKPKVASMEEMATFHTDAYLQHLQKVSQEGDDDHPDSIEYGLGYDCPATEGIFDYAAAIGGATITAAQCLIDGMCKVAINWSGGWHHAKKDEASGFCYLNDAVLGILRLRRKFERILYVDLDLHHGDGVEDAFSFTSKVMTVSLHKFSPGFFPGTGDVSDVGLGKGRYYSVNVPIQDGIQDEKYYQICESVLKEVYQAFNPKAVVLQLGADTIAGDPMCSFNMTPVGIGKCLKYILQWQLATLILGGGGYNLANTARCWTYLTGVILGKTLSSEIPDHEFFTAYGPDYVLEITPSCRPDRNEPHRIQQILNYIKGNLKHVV
The protocol: as §1

The next test deals with HDAC3 (Homo sapiens, UniProt O15379). Here is the method:
as §1

A further test concerns the target HDAC2 (Homo sapiens, UniProt Q92769). Here is the method: as §1
The next test addresses HDAC1 (Homo sapiens, UniProt Q13547). Here is the method:
as §1

Another test concerns the target HDAC4 (Homo sapiens, UniProt P56524). Here is the method:
as §1

Another test concerns the target T4, HDAC10 (Homo sapiens, UniProt Q969S8).
T4 sequence (Q969S8 1-669): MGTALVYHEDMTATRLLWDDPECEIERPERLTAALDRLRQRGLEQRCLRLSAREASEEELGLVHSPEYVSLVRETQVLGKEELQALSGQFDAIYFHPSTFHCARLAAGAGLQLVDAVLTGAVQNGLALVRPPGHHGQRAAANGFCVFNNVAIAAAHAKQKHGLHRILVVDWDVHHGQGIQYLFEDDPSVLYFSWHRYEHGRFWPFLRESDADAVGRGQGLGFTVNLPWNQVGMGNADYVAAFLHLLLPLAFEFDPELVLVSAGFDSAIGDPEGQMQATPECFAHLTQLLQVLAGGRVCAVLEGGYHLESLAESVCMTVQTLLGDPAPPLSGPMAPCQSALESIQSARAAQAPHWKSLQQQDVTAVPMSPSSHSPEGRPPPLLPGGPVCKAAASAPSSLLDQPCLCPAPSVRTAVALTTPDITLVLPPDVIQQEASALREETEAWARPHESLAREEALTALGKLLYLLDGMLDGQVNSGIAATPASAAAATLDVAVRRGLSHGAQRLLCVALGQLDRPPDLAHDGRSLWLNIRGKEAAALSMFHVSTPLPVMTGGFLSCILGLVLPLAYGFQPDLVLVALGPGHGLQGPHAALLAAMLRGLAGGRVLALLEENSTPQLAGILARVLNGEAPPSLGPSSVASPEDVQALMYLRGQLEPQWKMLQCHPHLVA
Here is the method: as §1

A further test has as its target HDAC9 (Homo sapiens, UniProt Q9UKV0). Here is the method:
(§2) The substrate was incubated with the eleven single HDAC purified enzymes. Upon its deacetylation, the fluorophore was released given rise to fluorescence emission. The latter was detected by a fluorimeter, and the IC50 values of the compounds were determined by analyzing dose-response inhibition curves.

In another test the target is T5, HDAC7 (Homo sapiens, UniProt Q8WUI4).
T5 sequence (Q8WUI4 1-952): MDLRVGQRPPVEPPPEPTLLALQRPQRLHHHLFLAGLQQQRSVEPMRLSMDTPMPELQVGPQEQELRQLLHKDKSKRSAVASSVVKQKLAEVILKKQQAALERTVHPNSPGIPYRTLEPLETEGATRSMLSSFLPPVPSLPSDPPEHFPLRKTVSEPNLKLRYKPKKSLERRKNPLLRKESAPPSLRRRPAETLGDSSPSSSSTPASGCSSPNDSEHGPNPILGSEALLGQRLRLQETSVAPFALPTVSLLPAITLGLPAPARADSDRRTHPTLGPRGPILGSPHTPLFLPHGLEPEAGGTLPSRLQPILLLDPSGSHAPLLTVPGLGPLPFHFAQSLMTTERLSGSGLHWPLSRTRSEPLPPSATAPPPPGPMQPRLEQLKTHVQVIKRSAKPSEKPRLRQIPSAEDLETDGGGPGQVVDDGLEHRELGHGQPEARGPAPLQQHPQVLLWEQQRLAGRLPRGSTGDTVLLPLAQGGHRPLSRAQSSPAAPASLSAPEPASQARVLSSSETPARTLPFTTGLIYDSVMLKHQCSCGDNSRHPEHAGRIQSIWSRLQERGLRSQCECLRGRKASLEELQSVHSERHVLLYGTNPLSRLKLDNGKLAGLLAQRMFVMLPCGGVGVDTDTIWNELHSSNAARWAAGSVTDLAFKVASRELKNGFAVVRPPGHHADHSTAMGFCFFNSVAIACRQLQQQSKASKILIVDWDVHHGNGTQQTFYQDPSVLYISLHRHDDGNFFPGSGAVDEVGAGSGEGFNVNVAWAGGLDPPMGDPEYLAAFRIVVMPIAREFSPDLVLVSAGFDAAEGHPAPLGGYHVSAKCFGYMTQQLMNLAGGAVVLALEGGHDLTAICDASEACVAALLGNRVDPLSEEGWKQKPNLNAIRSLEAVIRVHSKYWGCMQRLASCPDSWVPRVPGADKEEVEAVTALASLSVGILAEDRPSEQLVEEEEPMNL
The protocol: as §2

HDAC2, sequence (Q92769 whole entry): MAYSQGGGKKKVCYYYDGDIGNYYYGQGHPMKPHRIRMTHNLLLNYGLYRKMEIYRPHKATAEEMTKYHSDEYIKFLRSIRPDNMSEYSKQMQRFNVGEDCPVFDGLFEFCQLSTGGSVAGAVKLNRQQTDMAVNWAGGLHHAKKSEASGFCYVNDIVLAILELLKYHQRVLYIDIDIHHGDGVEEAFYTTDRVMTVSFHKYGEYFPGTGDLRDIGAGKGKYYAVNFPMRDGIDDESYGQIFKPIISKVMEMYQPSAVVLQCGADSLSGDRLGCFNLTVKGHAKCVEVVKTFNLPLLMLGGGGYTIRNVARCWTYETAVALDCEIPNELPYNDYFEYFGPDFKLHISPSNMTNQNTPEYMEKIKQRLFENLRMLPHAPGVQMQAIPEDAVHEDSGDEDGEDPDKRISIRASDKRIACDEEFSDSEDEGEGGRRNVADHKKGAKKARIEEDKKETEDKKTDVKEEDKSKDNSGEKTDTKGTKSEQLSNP
HDAC3, sequence (O15379 whole entry): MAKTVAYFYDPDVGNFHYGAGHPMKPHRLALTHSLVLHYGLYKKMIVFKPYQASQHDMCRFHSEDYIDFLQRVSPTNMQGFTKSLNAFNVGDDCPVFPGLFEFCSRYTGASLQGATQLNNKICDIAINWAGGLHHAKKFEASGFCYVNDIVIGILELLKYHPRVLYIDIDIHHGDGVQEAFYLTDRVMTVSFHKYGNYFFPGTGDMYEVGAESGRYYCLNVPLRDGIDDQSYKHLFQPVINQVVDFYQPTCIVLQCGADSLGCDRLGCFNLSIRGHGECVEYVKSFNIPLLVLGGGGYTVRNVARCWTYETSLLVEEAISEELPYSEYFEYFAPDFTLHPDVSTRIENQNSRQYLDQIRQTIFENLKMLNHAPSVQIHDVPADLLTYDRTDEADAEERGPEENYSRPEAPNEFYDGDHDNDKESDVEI
HDAC3, sequence (Q9Y618 395-489 partner limits assumed): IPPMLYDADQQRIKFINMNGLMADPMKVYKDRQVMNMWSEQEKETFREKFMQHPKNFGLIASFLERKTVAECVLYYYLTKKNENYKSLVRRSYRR
HDAC4, sequence (P56524 whole entry): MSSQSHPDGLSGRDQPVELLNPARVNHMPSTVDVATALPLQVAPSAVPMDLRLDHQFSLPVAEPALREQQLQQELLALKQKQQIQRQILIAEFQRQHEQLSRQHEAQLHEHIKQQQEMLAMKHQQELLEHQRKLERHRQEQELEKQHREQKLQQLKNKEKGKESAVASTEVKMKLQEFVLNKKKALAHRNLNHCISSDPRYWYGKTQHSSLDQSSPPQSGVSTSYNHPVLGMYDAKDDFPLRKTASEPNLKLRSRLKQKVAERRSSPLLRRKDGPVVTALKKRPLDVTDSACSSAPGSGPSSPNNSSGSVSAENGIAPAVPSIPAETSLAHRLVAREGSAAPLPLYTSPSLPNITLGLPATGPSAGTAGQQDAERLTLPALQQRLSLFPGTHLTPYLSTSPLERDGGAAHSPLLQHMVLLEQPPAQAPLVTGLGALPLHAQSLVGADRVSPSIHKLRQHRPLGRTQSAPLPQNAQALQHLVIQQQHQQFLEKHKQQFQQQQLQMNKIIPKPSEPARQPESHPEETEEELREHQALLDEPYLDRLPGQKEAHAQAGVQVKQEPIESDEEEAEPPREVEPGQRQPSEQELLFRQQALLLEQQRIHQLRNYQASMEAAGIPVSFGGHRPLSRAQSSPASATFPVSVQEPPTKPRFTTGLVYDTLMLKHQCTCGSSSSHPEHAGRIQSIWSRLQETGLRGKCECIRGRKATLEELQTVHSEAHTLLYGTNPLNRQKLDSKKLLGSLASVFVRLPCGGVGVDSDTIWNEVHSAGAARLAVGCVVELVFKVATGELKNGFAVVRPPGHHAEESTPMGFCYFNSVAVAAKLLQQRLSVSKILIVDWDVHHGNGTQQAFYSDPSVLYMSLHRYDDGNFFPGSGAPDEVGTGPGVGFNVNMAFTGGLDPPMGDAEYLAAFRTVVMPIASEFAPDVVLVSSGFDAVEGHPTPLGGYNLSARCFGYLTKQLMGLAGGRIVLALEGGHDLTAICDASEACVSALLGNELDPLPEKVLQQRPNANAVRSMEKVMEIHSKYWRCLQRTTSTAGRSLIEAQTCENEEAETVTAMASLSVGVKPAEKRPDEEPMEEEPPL
HDAC1, sequence (Q13547 whole entry): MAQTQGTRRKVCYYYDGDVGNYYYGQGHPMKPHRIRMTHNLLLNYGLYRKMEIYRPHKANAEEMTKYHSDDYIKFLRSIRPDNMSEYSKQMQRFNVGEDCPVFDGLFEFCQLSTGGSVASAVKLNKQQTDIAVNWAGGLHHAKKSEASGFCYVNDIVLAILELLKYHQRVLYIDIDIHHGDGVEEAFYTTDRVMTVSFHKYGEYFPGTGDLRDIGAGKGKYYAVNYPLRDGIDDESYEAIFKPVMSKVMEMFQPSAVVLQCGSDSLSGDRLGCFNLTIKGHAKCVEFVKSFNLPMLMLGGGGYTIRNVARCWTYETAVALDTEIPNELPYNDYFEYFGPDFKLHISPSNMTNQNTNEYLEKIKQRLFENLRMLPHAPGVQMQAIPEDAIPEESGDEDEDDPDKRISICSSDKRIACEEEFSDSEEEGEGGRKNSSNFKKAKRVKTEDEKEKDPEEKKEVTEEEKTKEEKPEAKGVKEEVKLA
HDAC9, sequence (Q9UKV0 whole entry): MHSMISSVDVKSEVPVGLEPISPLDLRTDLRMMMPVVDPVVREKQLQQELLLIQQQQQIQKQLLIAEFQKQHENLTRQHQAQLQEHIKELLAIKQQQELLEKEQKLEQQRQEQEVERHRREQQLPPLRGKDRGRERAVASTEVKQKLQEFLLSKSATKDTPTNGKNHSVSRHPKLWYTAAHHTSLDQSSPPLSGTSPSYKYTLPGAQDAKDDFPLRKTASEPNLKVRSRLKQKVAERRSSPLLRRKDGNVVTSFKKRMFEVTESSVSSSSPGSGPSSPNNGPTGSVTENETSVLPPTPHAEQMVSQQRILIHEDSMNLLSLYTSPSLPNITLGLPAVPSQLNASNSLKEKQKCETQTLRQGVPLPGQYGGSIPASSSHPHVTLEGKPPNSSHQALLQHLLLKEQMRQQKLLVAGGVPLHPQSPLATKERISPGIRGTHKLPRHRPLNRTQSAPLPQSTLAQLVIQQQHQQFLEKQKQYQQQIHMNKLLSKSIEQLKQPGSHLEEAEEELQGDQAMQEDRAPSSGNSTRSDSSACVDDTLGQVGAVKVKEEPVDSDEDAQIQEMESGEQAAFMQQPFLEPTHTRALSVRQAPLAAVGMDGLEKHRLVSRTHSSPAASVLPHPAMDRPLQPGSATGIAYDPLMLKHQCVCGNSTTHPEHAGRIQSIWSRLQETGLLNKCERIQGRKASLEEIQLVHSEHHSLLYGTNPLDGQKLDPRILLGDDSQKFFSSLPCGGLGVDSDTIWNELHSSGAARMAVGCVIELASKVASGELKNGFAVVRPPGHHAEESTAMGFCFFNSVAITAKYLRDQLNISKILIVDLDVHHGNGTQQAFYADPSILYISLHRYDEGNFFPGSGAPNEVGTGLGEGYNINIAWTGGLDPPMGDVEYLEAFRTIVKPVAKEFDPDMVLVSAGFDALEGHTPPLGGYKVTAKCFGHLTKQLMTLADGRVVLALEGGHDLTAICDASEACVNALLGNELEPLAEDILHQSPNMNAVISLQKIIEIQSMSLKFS

Consider `COc1cc2cc(c1)C(=O)Nc1ccccc1NC(=O)[C@H](CCCCCC(=O)NO)OC/C=C\2` [Example 1, 6-((Z)—(S)-19-methoxy-2,11-dioxo-13-oxa-3,10-diaza-tricyclo[15.3.1.0*4,9*]henicosa-1(21),4,6,8,15,17,19-heptaen-12-yl)-hexanoic hydroxamic acid], for which the IC50 was determined as 0.059 µM at HDAC6; 1.66 µM on HDAC5; 0.948 µM against HDAC11; 0.534 µM against HDAC8; 1.11 µM at HDAC3; 3.28 µM against HDAC2. In addition, the half-maximal inhibitory concentration (IC50) against HDAC1 is 0.864 µM; on HDAC4 it was 5.33 µM; on HDAC10, 2.29 µM; against HDAC9, 2.02 µM; on HDAC7, 4.3 µM.

Regarding `COc1cc2cc(c1)C(=O)Nc1ccccc1NC(=O)[C@@H](CCCCCC(=O)NO)OC/C=C\2` [Example 2, 6-((Z)—(R)-19-methoxy-2,11-dioxo-13-oxa-3,10-diaza-tricyclo[15.3.1.0*4,9*]henicosa-1(21),4,6,8,15,17,19-heptaen-12-yl)-hexanoic hydroxamic acid], the IC50 against HDAC6 amounted to 0.075 µM; against HDAC5, 1.34 µM; against HDAC11 it was 1.11 µM; against HDAC8 it was 0.682 µM; against HDAC3 it was 0.885 µM; against HDAC2 it was 2.53 µM. The IC50 on HDAC1 turned out to be 1.34 µM; against HDAC4, 3.48 µM; against HDAC10, 1.88 µM; against HDAC9, 1.14 µM; against HDAC7, 2.07 µM.

For the molecule “(S)-2-(6,18-dioxo-5,6,7,9,10,11,12,13,18,19-decahydrobenzo[5,6][1,4,7]-oxadiazacyclo-tetradecino[10,9-b]indol-7-yl)-N-hydroxyacetamide [Example 3]”, the IC50 at HDAC6 was found to be 0.0044 µM; against HDAC5, 0.496 µM; against HDAC11, 0.379 µM; on HDAC8, 0.297 µM; on HDAC3, 0.331 µM; against HDAC2, 0.584 µM. The IC50 against HDAC1 stood at 0.245 µM; on HDAC4 it was 1.69 µM; against HDAC10, 0.627 µM; on HDAC9 it was 0.602 µM; at HDAC7, 2.23 µM.
